Measured values as given in patent US5300499A, “5-substituted 3-thiophene sulfonamides as antiglaucoma agents” (Allergan, Inc., priority 1992, dated 1994).
“And” between values parts separate entries of the source, which are not always exact repeats. Equal entries are not always repeated.

target: T1, pure CA11 enzyme from human erythrocyte (Homo sapiens, UniProt P00918); assay: Carbonic anhydrase activity assay, micromethod of Maren; type: biochemical; settings: concentration that lowers the enzyme activity to half; 0°-4° C.; phenol red endpoint, pH 9.9 to 6.8
T1 construct: pure CA11 enzyme from human erythrocyte; from tissue; host or cells: human erythrocyte
Procedure: Carbonic anhydrase activity was assayed according to the micromethod of Maren (J. Pharmacol. Exptl. Therap., 130, 26-29, 1960). All solutions and reagents were maintained at 0°-4° C. The final assay mixture contained 16 mM phenol red, added enzyme and 62.5 mM sodium carbonate/bicarbonate. Its volume was kept constant at 0.8 mL. The time required for the added enzyme to lower the pH of CO2 -saturated carbonate/bicarbonate buffer from pH 9.9 to 6.8 was measured using the color change of phenol red as endpoint. T1 is the time recorded for the reaction containing no enzyme. T2 is the time recorded for the reaction containing pure CA11 enzyme from human erythrocyte, or an unknown amount in a sample. Enzyme activities (unit) were calculated using the formula:
Unit/ug=(T1 -T2)/(T2 *ug protein used in assay)
IC50 of a carbonic anhydrase inhibitor is the concentration that lowers the enzyme activity to half.

SMILES | IC50
NS(=O)(=O)c1csc(C(=O)c2cc(F)cc(F)c2)c1 [5-(3.5-difluorobenzoyl)-3-thiophene sulfonamide] | 0.015 µM
NS(=O)(=O)c1csc(C(=O)c2ccccn2)c1 [[5-(3-sulfonamidothienyl)][2-pyridyl] ketone] | 0.019 µM
NS(=O)(=O)c1csc(C(O)c2ccc(C=O)cc2)c1 (stereo not shown) [5-(4-formylbenzhydrol)-3-thiophene sulfonamide] | 0.018 µM
CCCCCCC(=O)c1cc(S(N)(=O)=O)cs1 [5-(1-heptanoyl)-3-thiophene sulfonamide] | 0.014 µM
NS(=O)(=O)c1csc(C(=O)c2cccc(C(F)(F)F)c2)c1 [5-(3-trifluoromethylbenzoyl)-3-thiophene sulfonamide] | 0.0083 µM
CC(=O)Oc1ccc(C(=O)c2cc(S(N)(=O)=O)cs2)cc1 [5-(4-acetoxybenzoyl)-3-thiophene sulfonamide] | 0.012 µM and 0.0036 µM
CC(C)(C)OC(=O)c1ccc(C(=O)c2cc(S(N)(=O)=O)cs2)cc1 [5-(4-t-butoxycarbonylbenzoyl)-3-thiophene sulfonamide] | 0.003 µM
COc1ccc(C(O)c2cc(S(N)(=O)=O)cs2)cc1 (stereo not shown) [5-(4-methoxybenzhydrol)-3-thiophene sulfonamide] | 0.016 µM
COC(c1ccc(CO)cc1)c1cc(S(N)(=O)=O)cs1 (stereo not shown) [5-[(methoxy)(4-hydroxymethylphenyl)]methyl-3-thiophene sulfonamide] | 0.013 µM
CN(C)Cc1cc(C(=O)c2cc(S(N)(=O)=O)cs2)ccc1O [5-(4-hydroxy-3-(N,N-dimethylaminomethyl)benzoyl)-3-thiophene sulfonamide] | 0.03 µM
NS(=O)(=O)c1csc(C(O)c2ccccn2)c1 (stereo not shown) [5-[(hydroxy)(pyridyl)methyl]-3-thiophene sulfonamide] | 0.24 µM
NS(=O)(=O)c1csc(C(=O)c2cccc(O)c2)c1 [5-(3-hydroxybenzoyl)-3-thiophene sulfonamide] | 0.0067 µM
NS(=O)(=O)c1csc(C(=O)c2cccc(OC(=O)c3ccccc3)c2)c1 | 0.0053 µM
CCC(=O)Oc1ccc(C(=O)c2cc(S(N)(=O)=O)cs2)cc1 [5-(4-propionoxybenzoyl)-3-thiophene sulfonamide] | 0.009 µM
NS(=O)(=O)c1csc(C(=O)c2ccc(O)cc2)c1 [5-(4-hydroxybenzoyl)-3-thiophene sulfonamide] | 0.017 µM
CN(C)Cc1cc(C(=O)c2cc(S(N)(=O)=O)cs2)cc(CN(C)C)c1O [5-(4-hydroxy-3,5-(bis-N,N-dimethylaminomethyl)benzoyl)-3-thiophene sulfonamide] | 0.155 µM
NS(=O)(=O)c1csc(C(=O)c2cccc(C=O)c2)c1 [5-(3-formylbenzoyl)-3-thiophene sulfonamide] | 0.0073 µM
NS(=O)(=O)c1csc(C(=O)c2cccc(C(=O)O)c2)c1 [5-(3-carboxylbenzoyl)-3-thiophene sulfonamide] | 0.011 µM and 0.014 µM
CC(=O)OC(c1ccccc1)c1cc(S(N)(=O)=O)cs1 (stereo not shown) [5-[(phenyl)(acetoxy)methyl]-3-thiophene sulfonamide] | 0.09 µM
CCCCC(=O)c1cc(S(N)(=O)=O)cs1 [5-(1-pentanoyl)-3-thiophene sulfonamide] | 0.027 µM

SMILES | IC50
NS(=O)(=O)c1csc(C(O)c2ccc(CO)cc2)c1 (stereo not shown) [5-(4-hydroxymethylbenzhydrol)-3-thiophene sulfonamide] | 0.041 µM
CCCCCCC(O)c1cc(S(N)(=O)=O)cs1 (stereo not shown) [5-(1-hydroxy-n-heptyl)-3-thiophene sulfonamide] | 0.031 µM
NS(=O)(=O)c1csc(C(=O)c2ccc(CO)cc2)c1 [5-(4-hydroxymethylbenzoyl)-3-thiophene sulfonamide] | 0.017 µM
CCCCc1ccc(C(=O)c2cc(S(N)(=O)=O)cs2)cc1 [5-(4-butylbenzoyl)-3-thiophene sulfonamide] | 0.0087 µM
NS(=O)(=O)c1csc(C(=O)c2ccc(C=O)cc2)c1 [5-(4-formylbenzoyl)-3-thiophene sulfonamide] | 0.013 µM
CCCCC(=NO)c1cc(S(N)(=O)=O)cs1 [5-(1-pentanoyl)-3-thiophene sulfonamide, oxime] | 0.022 µM
NS(=O)(=O)c1csc(C(=O)c2ccccc2)c1 [5-benzoyl-3-thiophene sulfonamide] | 0.013 µM
NS(=O)(=O)c1csc(C(=O)c2ccccc2F)c1 [5-(2-fluorobenzoyl)-3-thiophene sulfonamide] | 0.018 µM
NS(=O)(=O)c1csc(C(O)c2ccc(O)cc2)c1 (stereo not shown) [5-(4-hydroxybenzhydrol)3-thiophene sulfonamide] | 0.026 µM
NS(=O)(=O)c1csc(C(O)c2cccc(O)c2)c1 (stereo not shown) [5-(3-hydroxybenzhydrol)-3-thiophene sulfonamide] | 0.037 µM
COC(c1cccc(C(F)(F)F)c1)c1cc(S(N)(=O)=O)cs1 (stereo not shown) [5-[(methoxy)(3-trifluoromethylphenyl)methyl]-3-thiophene sulfonamide] | 0.018 µM
CCOC(=O)c1ccc(C(=O)c2cc(S(N)(=O)=O)cs2)cc1 [5-(4-ethoxycarbonylbenzoyl)-3-thiophene sulfonamide] | 0.006 µM
NS(=O)(=O)c1csc(C(O)c2ccccc2)c1 (stereo not shown) [5-benzhydrol-3-thiophene sulfonamide, 5-(benzhydrol)-3-thiophene sulfonamide] | 0.074 µM
COc1ccc(C(=NO)c2cc(S(N)(=O)=O)cs2)cc1 [5-(4-methoxybenzoyl)-3-thiophene sulfonamide, oxime] | 0.031 µM
COc1ccc(C(=O)c2cc(S(N)(=O)=O)cs2)cc1 [5-(4-methoxybenzoyl)-3-thiophene sulfonamide] | 0.026 µM
NS(=O)(=O)c1csc(C(=O)c2cccc(F)c2)c1 [5-(3-fluorobenzoyl)-3-thiophene sulfonamide] | 0.012 µM
CCCCC(O)c1cc(S(N)(=O)=O)cs1 (stereo not shown) [5-(1-hydroxy-n-pentyl)-3-thiophene sulfonamide] | 0.032 µM
CC(=O)OCc1ccc(C(=O)c2cc(S(N)(=O)=O)cs2)cc1 [5-(4-acetoxymethylbenzoyl)-3-thiophene sulfonamide] | 0.006 µM
NS(=O)(=O)c1csc(C(=NO)c2ccccc2)c1 [5-benzoyl-3-thiophene sulfonamide, oxime] | 0.053 µM
NS(=O)(=O)c1csc(C(=O)c2ccc(C(=O)O)cc2)c1 [5-(4-carboxybenzoyl)-3-thiophene sulfonamide] | 0.0034 µM and 0.005 µM
